According to patent publication US10577366B2, “Crystalline forms of a compound that inhibits bromodomain” (Plexxikon Inc., priority 2017, dated 2020):
Entries after “also recorded” stand apart in the source; their conditions may differ.

Tests used:
Assay type in all cases: physicochemical
[1] = Solid form conversion on heating (XRPD / DSC)
Protocol: For XRPD analyses provided herein, a PANalytical Empyrean X-ray powder diffract meter was used, and the XRPD parameters used are summarized in Table 1.
DSC was performed using a TA Q200/Q2000 DSC from TA Instruments. TGA data were collected using a TA Q500/Q5000 TGA from TA Instruments. […]
Compound I Form C was prepared via anti-solvent addition in acetone/n-heptane at RT. […] (peak temperature) followed by two endotherms at 232.8° C. and 265.7° C. (onset temperature). […] It is also contemplated that Form C may be an anhydrate based on the characterization results. […]

[2] = Dynamic vapor sorption (DVS) isotherm, solid form stability as a function of humidity; details: for Water uptake: DVS at 25° C., up to 80% RH, solids pre-dried at 0% RH; for Form change after DVS test according to XRPD: after DVS at 25° C., 0% RH to 95% RH
Protocol: DVS was measured via a SMS (Surface Measurement Systems) DVS Intrinsic. The relative humidity at 25° C. were calibrated against deliquescence point of LiCl, Mg(NO3)2 and KCl.
DVS isotherm plot was collected at 25° C. to investigate the solid form stability as a function of humidity for Form A. Solids were pre-dried at 0% RH to remove surface solvent or water before DVS.
DVS isotherm plot was collected at 25° C. to investigate the solid form stability as a function of humidity for Form C. Solids were pre-dried at 0% RH to remove surface solvent or water before DVS. Water uptake of 0.6% was observed up to 80% RH (FIG. 9).

[3] = Slurry turnover between forms in ACN at various temperatures; details: for Solid form after slurry turnover (XRPD): 1:1 mass mixture with Form A in ACN
Protocol: The conversion relationship between anhydrous Compound I Form A and Compound I Form C was investigated via slurry turnover at various temperatures (RT (25±3° C.) or 50° C.) as follows.
(§1) About 5 mg of Compound I Form A was added to 1.0 mL of ACN, and the suspension was stirred at 50° C. for 2 hours to reach equilibrium. The suspension was filtered into a vial, which included 5 mg of Compound I Form A and Compound I Form C (mass ratio of 1:1). The mixture was stirred at a desired temperature for 4 days, and the solids were then analyzed by XRPD and DSC.
The conversion relationship between anhydrate Compound I Form A and Compound I Form E was investigated via slurry turnover at various temperatures (RT (25±3° C.) or 50° C.) and water activities as follows.
as §1, with “For various temperatures: About” for “About”, “included 2” for “included 5”, “Form E” for “Form C”, “by XRPD.” for “by XRPD and DSC.”

[4] = Slurry turnover between Form A and E at various water activities; details: 21 days, XRPD
Protocol: For various water activities: About 10 mg of Compound I Form A was added to 1.0 mL EtOH/H2O with different aw (Table 12), and the suspension was stirred at RT for 1 hour to reach equilibrium. The suspension was filtered into a vial, which included 2 mg of Compound I Form A and Compound I Form E (mass ratio of 1:1). The mixture was stirred at the desired aw for 21 days, and the solids were then analyzed by XRPD.

[5] = stirred 4 days at RT (25±3° C.)

Structure (SMILES): Cc1noc(C)c1-c1cnc2c(-c3ccc(C(=O)O)cc3)cn(C(C)(c3ccccn3)c3ccccn3)c2c1 [Form A, 4-(1-(1,1-di(pyridin-2-yl)ethyl)-6-(3,5-dimethylisoxazol-4-yl)-1H-pyrrolo[3,2-b]pyridin-3-yl)benzoic acid]
- Relative stability of Form A versus Form C ([1]; based on the Burger-Ramberger Rules, before melting): monotropically more stable than Form C
- Water uptake [2]: 0.5%
- Form change after DVS test according to XRPD [2]: No form change
- Hygroscopicity ([2]; judged from DVS water uptake up to 80% RH at 25° C.): slightly hygroscopic
- Stability relationship between Form A and Form C ([3]; from slurry turnover at RT and 50° C. and DSC, monotropic): more stable

Structure (SMILES): Cc1noc(C)c1-c1cnc2c(-c3ccc(C(=O)O)cc3)cn(C(C)(c3ccccn3)c3ccccn3)c2c1 [Form B, 4-(1-(1,1-di(pyridin-2-yl)ethyl)-6-(3,5-dimethylisoxazol-4-yl)-1H-pyrrolo[3,2-b]pyridin-3-yl)benzoic acid]
- Solid form after heating (XRPD) ([1]; after heating to 110° C.): converted to Form A

Structure (SMILES): Cc1noc(C)c1-c1cnc2c(-c3ccc(C(=O)O)cc3)cn(C(C)(c3ccccn3)c3ccccn3)c2c1 [Form C, 4-(1-(1,1-di(pyridin-2-yl)ethyl)-6-(3,5-dimethylisoxazol-4-yl)-1H-pyrrolo[3,2-b]pyridin-3-yl)benzoic acid]
- Solid form after heating (XRPD/DSC) ([1]; after heating above the exothermic peak (174.5° C., peak temperature)): completely converted to Form A; also recorded: convert to Form A
- Water uptake [2]: 0.6%
- Form change after DVS test according to XRPD [2]: Phase transition of Form C to Form A
- Solid form after slurry turnover (XRPD) ([3]; stirred 4 days at 50° C.): converted to Form A
- Solid form after slurry turnover (XRPD) [3, 5]: converted to Form A

Structure (SMILES): Cc1noc(C)c1-c1cnc2c(-c3ccc(C(=O)O)cc3)cn(C(C)(c3ccccn3)c3ccccn3)c2c1 [Form D, 4-(1-(1,1-di(pyridin-2-yl)ethyl)-6-(3,5-dimethylisoxazol-4-yl)-1H-pyrrolo[3,2-b]pyridin-3-yl)benzoic acid]
- Solid form after heating (XRPD) ([1]; after heating to 145° C. and cooling to ambient conditions): converted to Form C

Structure (SMILES): Cc1noc(C)c1-c1cnc2c(-c3ccc(C(=O)O)cc3)cn(C(C)(c3ccccn3)c3ccccn3)c2c1 [Form E, 4-(1-(1,1-di(pyridin-2-yl)ethyl)-6-(3,5-dimethylisoxazol-4-yl)-1H-pyrrolo[3,2-b]pyridin-3-yl)benzoic acid]
- Solid form after heating (XRPD) ([1]; after heating to 150° C.): converted to Form A
- Final Form ([4]; Aw 0.298 (EtOH/H2O 952:48 v/v)): converted to Form A
- Final Form ([4]; Aw 0.605 (EtOH/H2O 855:145 v/v)): converted to Form A
- Final Form ([4]; Aw 0.900 (EtOH/H2O 450:550 v/v)): converted to Form A
- Solid form after slurry turnover (XRPD) ([3]; stirred 4 days at 50° C.): converted to Form A
- Solid form after slurry turnover (XRPD) [3, 5]: converted to Form A
